In PubChem BioAssay AID276 (DTP/NCI, 2004):
Where “and” joins values, the source holds several entries; their conditions need not be identical. Equal entries are not always repeated. Toxic doses and inconclusive results are not listed. Rule for the calls: active = survival T/C of 150% or more; inactive = T/C below 125% in these data.

Test system: B6C3F1 mice, Lewis lung carcinoma iv, survival T/C
Test: NCI In Vivo Anticancer Drug Screen. Data for tumor model Lewis Lung Carcinoma (intravenous) in B6C3F1 mice
Settings: endpoint: median survival time, schedule: Q01DX009 (ip), higher = longer survival
Summary of the method: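 Mice carrying transplanted tumors received test compound; survival in the treated group was divided by that of the vehicle-treated control group to give the T/C value.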

[1] = dose: 25.0 mg/kg/injection, vehicle: Klucel (hydroxypropylcellulose) (HPC)
[2] = dose: 50.0 mg/kg/injection, vehicle: Klucel (hydroxypropylcellulose) (HPC)
[3] = dose: 100.0 mg/kg/injection, vehicle: Klucel (hydroxypropylcellulose) (HPC)
[4] = dose: 200.0 mg/kg/injection, vehicle: Klucel (hydroxypropylcellulose) (HPC)
[5] = dose: 25.0 mg/kg/injection, vehicle: saline
[6] = dose: 50.0 mg/kg/injection, vehicle: saline
[7] = dose: 100.0 mg/kg/injection, vehicle: saline
[8] = dose: 200.0 mg/kg/injection, vehicle: saline
[9] = dose: 25.0 mg/kg/injection, vehicle: saline with Tween-80
[10] = dose: 50.0 mg/kg/injection, vehicle: saline with Tween-80
[11] = dose: 100.0 mg/kg/injection, vehicle: saline with Tween-80
[12] = dose: 200.0 mg/kg/injection, vehicle: saline with Tween-80
[13] = dose: 400.0 mg/kg/injection, vehicle: saline with Tween-80
[14] = dose: 800.0 mg/kg/injection, vehicle: saline with Tween-80

Measured: T/C

CCOC(=O)N1Cc2cc3cc(Cl)ccc3nc2C1
inactive: dose: 7.5 mg/kg/injection, vehicle: saline with Tween-80 100 % of control | dose: 15.0 mg/kg/injection, vehicle: saline with Tween-80 98 % of control | dose: 30.0 mg/kg/injection, vehicle: saline with Tween-80 100 % of control | dose: 60.0 mg/kg/injection, vehicle: saline with Tween-80 100 % of control | dose: 120.0 mg/kg/injection, vehicle: saline with Tween-80 105 % of control

Cc1c(-c2ccc(C3CCCCC3)cc2)nc2ccc(F)cc2c1C(=O)O
inactive: [1] 96 % of control | [2] 110 % of control | [3] 118 % of control | [4] 112 % of control

OCC(O)C(O)C(O)C(O)CO (stereo unspecified)
inactive: dose: 75.0 mg/kg/injection, vehicle: saline 100 % of control | dose: 150.0 mg/kg/injection, vehicle: saline 96 % of control | dose: 300.0 mg/kg/injection, vehicle: saline 92 % of control | dose: 600.0 mg/kg/injection, vehicle: saline 95 % of control | dose: 1200.0 mg/kg/injection, vehicle: saline 98 % of control

O=C(O)c1cc(Cc2ccc(O)c(C(=O)O)c2)ccc1O (tested in a mixture with another compound)
inactive: dose: 6.25 mg/kg/injection, vehicle: Klucel (hydroxypropylcellulose) (HPC) 107 % of control | dose: 12.5 mg/kg/injection, vehicle: Klucel (hydroxypropylcellulose) (HPC) 97 % of control | [1] 101 % of control | [2] 97 % of control | [3] 95 % of control

Nc1nncs1
inactive: dose: 15.19 mg/kg/injection, vehicle: Klucel (hydroxypropylcellulose) (HPC) 106 % of control | dose: 20.25 mg/kg/injection, vehicle: Klucel (hydroxypropylcellulose) (HPC) 100 % of control | dose: 27.0 mg/kg/injection, vehicle: Klucel (hydroxypropylcellulose) (HPC) 113 % of control | dose: 36.0 mg/kg/injection, vehicle: Klucel (hydroxypropylcellulose) (HPC) 103 % of control and 116 % of control | dose: 48.0 mg/kg/injection, vehicle: Klucel (hydroxypropylcellulose) (HPC) 103 % of control

O=C1CCC(=O)N1CO
inactive: [5] 94 % of control | [6] 98 % of control | [7] 94 % of control | [8] 103 % of control | dose: 400.0 mg/kg/injection, vehicle: saline 106 % of control

CN(C=O)C(C(=O)Nc1cccc2c(OC(=O)C(N(C)C=O)(N(C)C=O)N(C)C=O)c(N=Nc3ccc(S(=O)(=O)Nc4nccs4)cc3)cc(N=Nc3ccc(S(=O)(=O)Nc4nccs4)cc3)c12)(N(C)C=O)N(C)C=O (tested in a mixture with another compound)
inactive: [9] 103 % of control | [10] 98 % of control | [11] 99 % of control and 104 % of control | [12] 94 % of control and 98 % of control | [13] 103 % of control and 110 % of control | [14] 107 % of control

O=C(C/C(=N\C(=S)Nc1cc(C(F)(F)F)ccc1Cl)NO)N1CCCC1
inactive: [9] 98 % of control and 101 % of control | [10] 99 % of control and 105 % of control | [11] 101 % of control and 111 % of control | [12] 99 % of control

NC(=O)CC(N)C(=O)O (stereo unspecified)
inactive: dose: 50.0 mg/kg/injection, vehicle: other 95 % of control | [10] 102 % of control | dose: 100.0 mg/kg/injection, vehicle: other 110 % of control | [11] 96 % of control | dose: 200.0 mg/kg/injection, vehicle: other 97 % of control | [12] 96 % of control | dose: 400.0 mg/kg/injection, vehicle: other 92 % of control | [13] 97 % of control | dose: 800.0 mg/kg/injection, vehicle: other 104 % of control | [14] 100 % of control | dose: 1600.0 mg/kg/injection, vehicle: other 99 % of control | dose: 1600.0 mg/kg/injection, vehicle: saline with Tween-80 96 % of control

C=C(C(=O)O)C(N)C(=O)O (stereo unspecified)
inactive: [5] 95 % of control | [6] 102 % of control | [7] 100 % of control | [8] 117 % of control

CC(=O)[C@]1(O)Cc2c(O)c3c(c(O)c2[C@@H](OC2CC(N)C(O)C(C)O2)C1)C(=O)c1c(O)cccc1C3=O (stereo partly specified)
inactive: dose: 0.03 mg/kg/injection, vehicle: saline 107 % of control | dose: 0.06 mg/kg/injection, vehicle: saline 96 % of control | dose: 0.12 mg/kg/injection, vehicle: saline 108 % of control | dose: 0.25 mg/kg/injection, vehicle: saline 117 % of control

CC(=O)OC1C(O)C(C)OC(OC2C(OC(=O)C3CCC4C(C3)OC3(CC(OC(=O)/C=C/c5ccccc5)C(C)CO3)C43CO3)OC(C)C(O)C2OC(C)=O)C1O (stereo unspecified)
inactive: dose: 1.0 mg/kg/injection, vehicle: distilled water + Tween-80 105 % of control | dose: 2.0 mg/kg/injection, vehicle: distilled water + Tween-80 99 % of control | dose: 4.0 mg/kg/injection, vehicle: distilled water + Tween-80 100 % of control | dose: 8.0 mg/kg/injection, vehicle: distilled water + Tween-80 102 % of control | dose: 16.0 mg/kg/injection, vehicle: distilled water + Tween-80 91 % of control

O=C1c2cccc3cc([N+](=O)[O-])cc(c23)C(=O)N1CCN1CCCC1
inactive: dose: 3.0 mg/kg/injection, vehicle: saline with Tween-80 106 % of control | dose: 6.0 mg/kg/injection, vehicle: saline with Tween-80 115 % of control

Cc1cn(C2CC(F)C(CO)O2)c(=O)[nH]c1=O (stereo unspecified)
inactive: dose: 12.5 mg/kg/injection, vehicle: suspension in saline 106 % of control | dose: 25.0 mg/kg/injection, vehicle: suspension in saline 103 % of control | dose: 50.0 mg/kg/injection, vehicle: suspension in saline 106 % of control | dose: 100.0 mg/kg/injection, vehicle: suspension in saline 100 % of control | dose: 200.0 mg/kg/injection, vehicle: suspension in saline 121 % of control | dose: 400.0 mg/kg/injection, vehicle: suspension in saline 122 % of control

CC(=O)N(C)c1ccc(Nc2cc(C)[nH]c3ccc4ncnc4c23)cc1
inactive: dose: 6.25 mg/kg/injection, vehicle: saline 100 % of control | dose: 12.5 mg/kg/injection, vehicle: saline 100 % of control | [5] 105 % of control | [6] 102 % of control

CC1=CC(C)(C)Nc2ccc(CSc3ccccc3)cc21
inactive: dose: 12.5 mg/kg/injection, vehicle: saline + Tween-80 + alcohol 99 % of control | dose: 25.0 mg/kg/injection, vehicle: saline + Tween-80 + alcohol 108 % of control | dose: 50.0 mg/kg/injection, vehicle: saline + Tween-80 + alcohol 100 % of control | dose: 100.0 mg/kg/injection, vehicle: saline + Tween-80 + alcohol 101 % of control | dose: 200.0 mg/kg/injection, vehicle: saline + Tween-80 + alcohol 108 % of control | dose: 400.0 mg/kg/injection, vehicle: saline + Tween-80 + alcohol 108 % of control

O=C1N[C@H]2[C@H](CS[C@H]2CCCCC(=O)N(CCP(c2ccccc2)c2ccccc2)CCP(c2ccccc2)c2ccccc2)N1
inactive: [1] 93 % of control and 114 % of control | [2] 98 % of control and 88 % of control | [3] 102 % of control | [4] 92 % of control and 98 % of control
